Results reported in patent publication US10004732B2 (Novartis AG, priority 2014, dated 2018).
Counter-ions that a name gives are not always drawn. Like-named read-outs stand apart in the source and are kept apart here. One block for each compound: values may come before it.

Key:
PI 3-kinase alpha = PI 3-kinase alpha (Homo sapiens, UniProt P42336); assay: Kinase Glo Luminescent Kinase Assay (Kglo), assay A; format: biochemical; details: read-out: Assay A PI3Kα IC50
PI 3-kinase beta = PI 3-kinase beta (Homo sapiens, UniProt P42338); assay: Kinase Glo Luminescent Kinase Assay (Kglo), assay B; format: biochemical; details: read-out: Assay B PI3Kβ IC50
Chain of PI 3-kinase beta (P42338 whole entry): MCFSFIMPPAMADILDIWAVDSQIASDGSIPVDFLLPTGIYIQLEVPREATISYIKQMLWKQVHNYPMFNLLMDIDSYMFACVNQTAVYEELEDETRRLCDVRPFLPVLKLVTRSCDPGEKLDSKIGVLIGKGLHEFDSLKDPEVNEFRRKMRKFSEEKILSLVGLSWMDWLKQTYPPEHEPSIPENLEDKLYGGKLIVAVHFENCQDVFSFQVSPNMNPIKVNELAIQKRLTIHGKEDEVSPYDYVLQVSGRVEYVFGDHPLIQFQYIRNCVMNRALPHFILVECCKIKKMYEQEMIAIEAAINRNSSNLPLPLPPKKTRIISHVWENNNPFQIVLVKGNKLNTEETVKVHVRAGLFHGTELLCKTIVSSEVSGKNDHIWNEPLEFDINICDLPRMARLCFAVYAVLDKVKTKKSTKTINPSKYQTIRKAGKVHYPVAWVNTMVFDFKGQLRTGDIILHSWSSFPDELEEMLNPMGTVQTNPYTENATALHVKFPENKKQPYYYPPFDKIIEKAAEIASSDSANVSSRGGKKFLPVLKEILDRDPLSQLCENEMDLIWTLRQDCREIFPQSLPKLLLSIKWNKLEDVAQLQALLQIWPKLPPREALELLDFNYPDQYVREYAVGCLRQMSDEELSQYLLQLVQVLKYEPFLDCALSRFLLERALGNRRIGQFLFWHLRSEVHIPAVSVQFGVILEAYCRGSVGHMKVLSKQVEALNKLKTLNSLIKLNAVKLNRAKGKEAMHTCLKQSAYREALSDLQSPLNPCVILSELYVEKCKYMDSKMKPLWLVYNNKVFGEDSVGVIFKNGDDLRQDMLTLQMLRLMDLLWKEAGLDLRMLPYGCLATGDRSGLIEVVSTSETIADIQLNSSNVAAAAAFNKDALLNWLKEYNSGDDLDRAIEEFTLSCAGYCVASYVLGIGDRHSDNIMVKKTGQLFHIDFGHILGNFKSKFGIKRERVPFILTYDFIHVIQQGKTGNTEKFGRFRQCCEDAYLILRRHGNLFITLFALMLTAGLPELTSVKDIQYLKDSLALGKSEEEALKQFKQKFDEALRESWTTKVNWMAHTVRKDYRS
Chain of PI 3-kinase beta (P27986 461-568 partner): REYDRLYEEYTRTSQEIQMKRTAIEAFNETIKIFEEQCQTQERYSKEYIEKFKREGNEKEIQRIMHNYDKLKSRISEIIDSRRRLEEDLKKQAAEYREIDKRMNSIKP

Vps34 = Vps34 (Homo sapiens, UniProt Q8NEB9); assay: Kinase Glo Luminescent Kinase Assay (Kglo), assay C; format: biochemical; details: read-out: Assay C VPS34 IC50
Chain of Vps34 (Q8NEB9 whole entry, species assumed): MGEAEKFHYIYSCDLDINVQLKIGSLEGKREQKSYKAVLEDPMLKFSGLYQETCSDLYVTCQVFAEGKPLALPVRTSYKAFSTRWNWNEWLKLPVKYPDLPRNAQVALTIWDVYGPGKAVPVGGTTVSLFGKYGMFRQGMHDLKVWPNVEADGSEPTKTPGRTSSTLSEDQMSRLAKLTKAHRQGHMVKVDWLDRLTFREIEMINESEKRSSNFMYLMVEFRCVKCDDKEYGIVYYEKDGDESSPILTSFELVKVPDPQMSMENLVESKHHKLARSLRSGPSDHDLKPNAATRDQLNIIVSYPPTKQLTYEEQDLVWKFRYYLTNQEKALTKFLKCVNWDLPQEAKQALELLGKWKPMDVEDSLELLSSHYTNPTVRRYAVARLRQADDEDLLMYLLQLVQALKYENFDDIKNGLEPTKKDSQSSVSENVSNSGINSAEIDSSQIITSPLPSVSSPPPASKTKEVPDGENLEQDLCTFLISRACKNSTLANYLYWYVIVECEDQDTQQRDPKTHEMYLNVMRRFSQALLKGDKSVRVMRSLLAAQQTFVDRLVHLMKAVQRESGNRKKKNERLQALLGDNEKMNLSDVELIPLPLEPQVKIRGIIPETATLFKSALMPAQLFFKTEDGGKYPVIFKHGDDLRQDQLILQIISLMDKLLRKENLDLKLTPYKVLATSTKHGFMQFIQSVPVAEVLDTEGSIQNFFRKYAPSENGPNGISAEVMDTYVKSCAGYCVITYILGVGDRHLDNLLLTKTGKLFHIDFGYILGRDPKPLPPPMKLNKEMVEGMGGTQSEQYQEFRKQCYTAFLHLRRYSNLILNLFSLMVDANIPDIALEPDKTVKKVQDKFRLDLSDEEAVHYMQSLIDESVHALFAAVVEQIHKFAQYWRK

PI 4-kinase beta = PI 4-kinase beta (Homo sapiens, UniProt Q9UBF8); assay: Kinase Glo Luminescent Kinase Assay (Kglo), assay D; format: biochemical; details: read-out: Assay D PI4Kβ IC50
Chain of PI 4-kinase beta (Q9UBF8 whole entry): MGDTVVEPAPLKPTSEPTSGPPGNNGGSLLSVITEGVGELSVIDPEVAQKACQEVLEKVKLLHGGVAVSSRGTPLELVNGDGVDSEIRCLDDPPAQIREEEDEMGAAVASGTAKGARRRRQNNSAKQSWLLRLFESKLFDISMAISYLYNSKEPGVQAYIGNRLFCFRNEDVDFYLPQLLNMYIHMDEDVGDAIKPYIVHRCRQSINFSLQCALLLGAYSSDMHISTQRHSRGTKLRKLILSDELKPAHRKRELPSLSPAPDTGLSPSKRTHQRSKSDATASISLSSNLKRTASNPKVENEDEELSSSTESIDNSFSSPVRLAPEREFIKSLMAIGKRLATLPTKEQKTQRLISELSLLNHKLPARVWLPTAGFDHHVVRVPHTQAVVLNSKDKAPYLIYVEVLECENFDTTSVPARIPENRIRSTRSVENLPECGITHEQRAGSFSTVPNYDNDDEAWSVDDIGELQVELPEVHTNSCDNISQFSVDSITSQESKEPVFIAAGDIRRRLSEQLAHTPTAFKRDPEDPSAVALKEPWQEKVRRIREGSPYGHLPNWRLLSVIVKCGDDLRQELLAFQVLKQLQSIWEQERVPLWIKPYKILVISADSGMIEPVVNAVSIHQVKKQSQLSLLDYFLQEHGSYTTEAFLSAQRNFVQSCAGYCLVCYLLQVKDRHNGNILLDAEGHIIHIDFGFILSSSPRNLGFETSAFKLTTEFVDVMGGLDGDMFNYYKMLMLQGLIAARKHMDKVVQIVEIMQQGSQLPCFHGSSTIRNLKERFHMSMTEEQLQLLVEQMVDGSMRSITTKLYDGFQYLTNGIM

PI 3-kinase gamma = PI 3-kinase gamma (Homo sapiens, UniProt P48736); assay: TR-FRET Adapta assay, assay E; format: biochemical; details: read-out: Assay E PI3Kγ IC50
Chain of PI 3-kinase gamma (P48736 whole entry): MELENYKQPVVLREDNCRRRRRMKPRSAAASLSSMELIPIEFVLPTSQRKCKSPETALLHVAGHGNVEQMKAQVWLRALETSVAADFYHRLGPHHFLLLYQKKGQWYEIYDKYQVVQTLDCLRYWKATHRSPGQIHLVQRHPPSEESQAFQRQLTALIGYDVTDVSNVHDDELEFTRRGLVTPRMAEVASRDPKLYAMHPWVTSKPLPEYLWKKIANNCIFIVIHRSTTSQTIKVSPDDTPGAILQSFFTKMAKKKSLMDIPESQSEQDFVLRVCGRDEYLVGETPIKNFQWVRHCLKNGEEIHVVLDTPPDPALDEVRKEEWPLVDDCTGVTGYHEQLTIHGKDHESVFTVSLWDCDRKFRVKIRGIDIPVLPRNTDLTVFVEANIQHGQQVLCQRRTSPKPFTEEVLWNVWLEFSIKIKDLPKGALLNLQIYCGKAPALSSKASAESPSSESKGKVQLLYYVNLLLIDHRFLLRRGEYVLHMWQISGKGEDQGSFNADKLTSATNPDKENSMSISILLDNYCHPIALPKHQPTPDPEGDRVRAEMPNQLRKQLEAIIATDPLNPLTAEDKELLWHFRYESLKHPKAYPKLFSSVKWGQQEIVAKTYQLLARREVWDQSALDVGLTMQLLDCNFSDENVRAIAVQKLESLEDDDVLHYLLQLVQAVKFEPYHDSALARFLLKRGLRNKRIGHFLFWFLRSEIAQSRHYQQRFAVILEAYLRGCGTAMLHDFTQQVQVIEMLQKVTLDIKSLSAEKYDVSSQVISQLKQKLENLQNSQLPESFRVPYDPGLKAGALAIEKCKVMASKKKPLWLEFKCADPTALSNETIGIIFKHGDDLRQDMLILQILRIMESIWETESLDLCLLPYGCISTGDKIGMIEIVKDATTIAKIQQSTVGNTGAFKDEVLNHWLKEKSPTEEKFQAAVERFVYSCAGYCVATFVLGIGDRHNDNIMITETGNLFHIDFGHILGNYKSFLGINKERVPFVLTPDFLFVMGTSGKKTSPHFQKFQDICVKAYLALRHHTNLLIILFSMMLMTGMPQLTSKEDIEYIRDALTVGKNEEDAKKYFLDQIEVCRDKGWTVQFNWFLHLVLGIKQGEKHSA
Experimental: TR-FRET Adapta Assay for PI 3-Kinase Gamma (E), PI 3-Kinase Delta (F)
The TR-FRET Adapta™ Universal Kinase Assay Kit was purchased from Invitrogen Corporation (Carlsbad/CA, USA) (Cat. No. PV5099).
PIK3CD substrate phosphatidylinositol (PI) was obtained from Invitrogen (vesicules consisting of 2 mM phosphatidylinositol (PI) in 50 mM HEPES pH7.5; Cat. No. PV5371). PIK3CG substrate phosphatidylinositol-4,5-bisphosphate (PIP(4,5)2 was obtained from Invitrogen (PIP2:PS large unilamellar vesicules consisting of 1 mM PIP2: 19 mM PS in 50 mM HEPES pH7.5, 3 mM MgCl2, 1 mM EGTA; Cat. No. PV5100).
Time-Resolved Fluorescence Resonance Energy Transfer (TR-FRET) is a technology based on energy transfer between two adjacent dyes, from an excited electron in one dye (the donor) to an electron of an adjacent dye (the acceptor) through resonance, then released as a photon. This energy transfer is detected by an increase in the fluorescence emission of the acceptor, and a decrease in the fluorescence emission of the donor. TR-FRET assays for protein kinases use a long-lifetime lanthanide Terbium or Europium chelates as the donor species which overcome interference from compound autofluorescence or light scatter from precipitated compounds, by introducing a delay after excitation by a flashlamp excitation source. Results are often expressed as a ratio of the intensities of the acceptor and donor fluorophores. The ratiometric nature of such a value corrects for differences in assay volumes between wells, as well as corrects for quenching effects due to colored compounds. The Adapta™ assay can be divided into two phases: a kinase reaction phase and an ADP detection phase. In the kinase reaction phase, all kinase reaction components are added to the well and the reaction is allowed to incubate for a set period of time specific for each kinase. […] In the presence of an inhibitor, the amount of ADP formed by the kinase reaction is reduced, and the resulting intact antibody-tracer interaction maintains a high TR-FRET signal.
50 nL of compound dilutions were dispensed onto white 384-well small volume polystyrene plate. Then 5 μL of either PI 3-kinase gamma or PI 3-kinase delta and lipid substrate (PI or PIP2:PS) followed by 5 μL of ATP (final assay volume 10 μL) are incubated at RT. The standard reaction buffer for the Adapta™ TR-FRET assay contained 10 mM Tris-HCl pH 7.5, 3 mM MgCl2, 50 mM NaCl, 1 mM DTT, 0.05% CHAPS 3-[(3-cholamidopropyl)dimethylammonio]-1-propanesulfonate).
Data are analyzed using Excel fit software or Graphpad Prism. IC50 values were derived by fitting a sigmoidal dose-response curve to a plot of assay readout over inhibitor concentration. All fits were performed with the program XLfit4 (ID Business Solutions, Guildford, UK). […] All fits were performed with the program XLfit4 (ID Business Solutions, Guildford, UK).

mTOR = mTOR (Homo sapiens, UniProt P42345); assay: Lanthascreen kinase binding assay, assay G; details: read-out: Assay G mTOR IC50
Experimental: Lanthascreen™ Kinase Binding Assay for mTOR (G)
Binding of an inhibitor to the kinase competes for binding with the tracer, resulting in a loss of FRET.
50 nL of compound dilutions were dispensed onto white 384-well small volume polystyrene plate.

PI 3-kinase delta = PI 3-kinase delta (Homo sapiens, UniProt O00329); assay: TR-FRET Adapta assay, assay F
Chain of PI 3-kinase delta (O00329 whole entry): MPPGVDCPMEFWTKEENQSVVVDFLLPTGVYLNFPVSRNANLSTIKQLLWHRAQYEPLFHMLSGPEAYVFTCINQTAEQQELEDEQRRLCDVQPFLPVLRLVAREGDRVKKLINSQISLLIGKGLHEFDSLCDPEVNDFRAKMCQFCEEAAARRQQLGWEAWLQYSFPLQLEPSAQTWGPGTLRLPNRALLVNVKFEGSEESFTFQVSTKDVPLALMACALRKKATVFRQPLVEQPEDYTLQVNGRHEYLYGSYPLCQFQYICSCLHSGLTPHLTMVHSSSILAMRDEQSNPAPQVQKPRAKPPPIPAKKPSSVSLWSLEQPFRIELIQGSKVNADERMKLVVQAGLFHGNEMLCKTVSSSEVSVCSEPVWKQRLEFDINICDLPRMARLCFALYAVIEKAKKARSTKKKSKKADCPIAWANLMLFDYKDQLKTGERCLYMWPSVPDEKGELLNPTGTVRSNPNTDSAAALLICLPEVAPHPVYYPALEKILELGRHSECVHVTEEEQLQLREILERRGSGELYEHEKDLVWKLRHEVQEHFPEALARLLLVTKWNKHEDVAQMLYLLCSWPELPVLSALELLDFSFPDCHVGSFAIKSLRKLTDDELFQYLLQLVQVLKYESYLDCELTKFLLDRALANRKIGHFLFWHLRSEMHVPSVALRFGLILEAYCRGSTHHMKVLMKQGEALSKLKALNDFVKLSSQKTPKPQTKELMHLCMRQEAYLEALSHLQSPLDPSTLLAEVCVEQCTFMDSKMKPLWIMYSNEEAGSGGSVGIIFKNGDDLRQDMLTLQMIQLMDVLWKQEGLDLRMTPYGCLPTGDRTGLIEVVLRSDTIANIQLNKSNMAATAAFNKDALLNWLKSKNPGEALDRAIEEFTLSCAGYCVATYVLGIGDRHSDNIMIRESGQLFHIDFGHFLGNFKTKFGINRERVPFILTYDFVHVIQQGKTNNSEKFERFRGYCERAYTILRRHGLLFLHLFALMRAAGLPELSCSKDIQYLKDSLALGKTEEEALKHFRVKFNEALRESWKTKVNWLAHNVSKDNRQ
Chain of PI 3-kinase delta (P27986 461-568 partner): as the sequence (P27986 461-568 partner) above

Structure (SMILES): Cc1ccc(S(=O)(=O)NCCC(C)(C)O)cc1-c1cnc(N)c(-c2ccnc(F)c2)n1 [Example 119.10]
IC50 (PI 3-kinase alpha): 0.12 µM
IC50 (PI 3-kinase beta): 6.47 µM
IC50 (Vps34): > 9.1 µM
IC50 (PI 4-kinase beta): > 9.1 µM
IC50 (PI 3-kinase gamma): 0.03 µM
IC50 (mTOR): 6.4 µM
IC50 (PI 3-kinase delta; read-out: Assay F PI3Kδ IC50): 0.1 µM

Structure (SMILES): Cc1cc(-c2nc(-c3cc(S(=O)(=O)NCC(C)(C)O)ccc3C)cnc2N)on1 [Example 88, 3-(5-Amino-6-(3-methylisoxazol-5-yl)pyrazin-2-yl)-N-(2-hydroxy-2-methylpropyl)-4-methylbenzenesulfonamide]
IC50 (PI 3-kinase beta): 2.2 µM
IC50 (PI 4-kinase beta): 6.1 µM
IC50 (PI 3-kinase delta; read-out: Assay F PI3Kδ IC50): 1.1 µM

Structure (SMILES): Cc1ccc(S(=O)(=O)NCC(C)(C)O)cc1-c1cnc(N)c(-c2cn(C)nc2C)n1 [Example 13]
IC50 (PI 3-kinase beta): 1.09 µM
IC50 (Vps34): > 10 µM
IC50 (PI 4-kinase beta): 6.5 µM
IC50 (mTOR): > 10 µM

Structure (SMILES): Cc1ncc(-c2nc(-c3cc(S(=O)(=O)NCC4COCCN4C)ccc3C)cnc2N)s1 (stereo not shown) [Example 45.12, 3-(5-Amino-6-(2-methylthiazol-5-yl)pyrazin-2-yl)-4-methyl-N-((4-methylmorpholin-3-yl)methyl)benzenesulfonamide]
IC50 (PI 3-kinase alpha): 0.05 µM
IC50 (PI 3-kinase beta): 0.39 µM
IC50 (Vps34): 2.6 µM
IC50 (PI 4-kinase beta): 1.4 µM
IC50 (PI 3-kinase gamma): 0.015 µM
IC50 (PI 3-kinase delta; read-out: Assay F PI3Kδ IC50): 0.1 µM

Structure (SMILES): Cc1ccc(S(=O)(=O)NCC(C)(C)CO)cc1-c1cnc(N)c(-c2nc(C3CC3)no2)n1 [Example 93, 3-(5-Amino-6-(3-cyclopropyl-1,2,4-oxadiazol-5-yl)pyrazin-2-yl)-N-(3-hydroxy-2,2-dimethylpropyl)-4-methylbenzenesulfonamide]
IC50 (Vps34): > 9.1 µM
IC50 (PI 4-kinase beta): > 9.1 µM
IC50 (mTOR): > 9.1 µM

Structure (SMILES): Cc1ncc(-c2nc(-c3cc(S(=O)(=O)NCCO)ccc3C)cnc2N)s1 [Example 45, 3-(5-Amino-6-(2-methylthiazol-5-yl)pyrazin-2-yl)-N-(2-hydroxyethyl)-4-methylbenzenesulfonamide]
IC50 (PI 3-kinase beta): 0.53 µM
IC50 (Vps34): 1.1 µM
IC50 (PI 4-kinase beta): 1.6 µM
IC50 (PI 3-kinase delta; read-out: Assay F PI3Kδ IC50): 0.23 µM

Continued, values first:

IC50 (PI 3-kinase alpha): 1.6 µM
IC50 (PI 3-kinase beta): 1.7 µM
IC50 (Vps34): > 9.1 µM
IC50 (PI 4-kinase beta): > 9.1 µM
IC50 (PI 3-kinase gamma): 0.59 µM
IC50 (mTOR): > 9.1 µM
IC50 (PI 3-kinase delta; read-out: Assay F PI3Kδ IC50): 1.6 µM
Structure (SMILES): Cc1cc(-c2nc(-c3cc(S(=O)(=O)NCCN(C)C)ccc3C)cnc2N)ccn1 [Example 129.26, 3-(5-amino-6-(2-methylpyridin-4-yl)pyrazin-2-yl)-N-(2-(dimethylamino)ethyl)-4-methylbenzenesulfonamide]

IC50 (PI 3-kinase alpha): 0.96 µM
IC50 (PI 3-kinase beta): 0.73 µM
IC50 (Vps34): > 10 µM
IC50 (PI 4-kinase beta): 3.3 µM
IC50 (PI 3-kinase gamma): 0.14 µM
IC50 (mTOR): > 10 µM
IC50 (PI 3-kinase delta): 2.4 µM
Structure (SMILES): Cc1ccc(S(=O)(=O)N[C@@H]2CNC[C@H]2O)cc1-c1cnc(N)c(-n2cncn2)n1 [Example 127.60, 3-(5-amino-6-(1H-1,2,4-triazol-1-yl)pyrazin-2-yl)-N-((3R,4R)-4-hydroxypyrrolidin-3-yl)-4-methylbenzenesulfonamide trifluoroacetic acid salt]

IC50 (PI 3-kinase alpha): 1.7 µM
IC50 (PI 3-kinase beta): 3.5 µM
IC50 (Vps34): > 10 µM
IC50 (PI 4-kinase beta): 4.2 µM
IC50 (PI 3-kinase gamma): 0.27 µM
IC50 (mTOR): > 10 µM
IC50 (PI 3-kinase delta; read-out: Assay F PI3Kδ IC50): 6.6 µM
Structure (SMILES): Cc1ccc(S(=O)(=O)N[C@@H](C)CO)cc1-c1cnc(N)c(-n2cncn2)n1 [Example 127.41]

IC50 (PI 3-kinase alpha): 0.84 µM
IC50 (PI 3-kinase beta): 1.4 µM
IC50 (Vps34): > 10 µM
IC50 (PI 4-kinase beta): > 10 µM
IC50 (PI 3-kinase gamma): 0.032 µM
IC50 (mTOR): 5.6 µM
IC50 (PI 3-kinase delta; read-out: Assay F PI3Kδ IC50): 2.1 µM
Structure (SMILES): Cc1ccc(S(=O)(=O)NCC2(CO)CCOCC2)cc1-c1cnc(N)c(-n2cncn2)n1 [Example 127.50]

IC50 (PI 3-kinase alpha): 1.9 µM
IC50 (PI 3-kinase beta): > 9.1 µM
IC50 (Vps34): > 9.1 µM
IC50 (PI 4-kinase beta): > 9.1 µM
IC50 (PI 3-kinase gamma): 0.24 µM
IC50 (mTOR): > 9.1 µM
IC50 (PI 3-kinase delta; read-out: Assay F PI3Kδ IC50): 2.1 µM
Structure (SMILES): COC(C)(C)CNS(=O)(=O)c1ccc(C)c(-c2cnc(N)c(-c3ccnc(C)c3)n2)c1 [Example 129.15, 3-(5-amino-6-(2-methylpyridin-4-yl)pyrazin-2-yl)-N-(2-methoxy-2-methylpropyl)-4-methylbenzenesulfonamide]

IC50 (PI 3-kinase alpha): 1.5 µM
IC50 (PI 3-kinase beta): > 9.1 µM
IC50 (Vps34): > 9.1 µM
IC50 (PI 4-kinase beta): > 9.1 µM
IC50 (PI 3-kinase gamma): 0.28 µM
IC50 (mTOR): > 9.1 µM
IC50 (PI 3-kinase delta; read-out: Assay F PI3Kδ IC50): 7.5 µM
Structure (SMILES): Cc1cc(-c2nc(-c3cc(S(=O)(=O)NC4CCN(C)CC4)ccc3C)cnc2N)ccn1 [Example 129.22, 3-(5-amino-6-(2-methylpyridin-4-yl)pyrazin-2-yl)-4-methyl-N-(1-methylpiperidin-4-yl)benzenesulfonamide]

IC50 (PI 3-kinase alpha): 1.3 µM
IC50 (PI 3-kinase beta): > 9.1 µM
IC50 (Vps34): > 9.1 µM
IC50 (PI 4-kinase beta): 8.3 µM
IC50 (PI 3-kinase gamma): 0.54 µM
IC50 (mTOR): > 9.1 µM
IC50 (PI 3-kinase delta; read-out: Assay F PI3Kδ IC50): 2.8 µM
Structure (SMILES): Cc1cc(-c2nc(-c3cc(S(=O)(=O)N4CC5(CNC5)C4)ccc3C)cnc2N)ccn1 [Example 129.37, 5-(5-(2,6-diazaspiro[3.3]heptan-2-ylsulfonyl)-2-methylphenyl)-3-(2-methylpyridin-4-yl)pyrazin-2-amine]

IC50 (PI 3-kinase alpha): 6 µM
IC50 (PI 3-kinase beta): > 10 µM
IC50 (Vps34): > 10 µM
IC50 (PI 4-kinase beta): > 10 µM
IC50 (PI 3-kinase gamma): 1 µM
IC50 (mTOR): > 10 µM
IC50 (PI 3-kinase delta; read-out: Assay F PI3Kδ IC50): > 10 µM
Structure (SMILES): Cc1ccc(S(=O)(=O)N2CC(F)(F)C(F)(F)C2)cc1-c1cnc(N)c(-n2cncn2)n1 [Example 127.8]

IC50 (PI 3-kinase alpha): 0.63 µM
IC50 (PI 3-kinase beta): > 9.1 µM
IC50 (Vps34): > 9.1 µM
IC50 (PI 4-kinase beta): > 9.1 µM
IC50 (PI 3-kinase gamma): 0.066 µM
IC50 (mTOR): > 9.1 µM
IC50 (PI 3-kinase delta; read-out: Assay F PI3Kδ IC50): 2 µM
Structure (SMILES): Cc1cc(-c2nc(-c3cc(S(=O)(=O)NCC4CCCCO4)ccc3C)cnc2N)ccn1 (stereo not shown) [Example 129.16, 3-(5-amino-6-(2-methylpyridin-4-yl)pyrazin-2-yl)-4-methyl-N-((tetrahydro-2H-pyran-2-yl)methyl)benzenesulfonamide]

IC50 (PI 3-kinase alpha): 1.9 µM
IC50 (PI 3-kinase beta): 5.3 µM
IC50 (Vps34): > 10 µM
IC50 (PI 4-kinase beta): 7.7 µM
IC50 (PI 3-kinase gamma): 0.13 µM
IC50 (mTOR): > 10 µM
IC50 (PI 3-kinase delta; read-out: Assay F PI3Kδ IC50): 1.6 µM
Structure (SMILES): Cc1ccc(S(=O)(=O)NC2CCOC2=O)cc1-c1cnc(N)c(-n2cncn2)n1 (stereo not shown) [Example 127.30]

IC50 (PI 3-kinase alpha): 0.55 µM
IC50 (PI 3-kinase beta): > 9.1 µM
IC50 (Vps34): > 9.1 µM
IC50 (PI 4-kinase beta): 6.2 µM
IC50 (PI 3-kinase gamma): 0.027 µM
IC50 (mTOR): > 9.1 µM
IC50 (PI 3-kinase delta; read-out: Assay F PI3Kδ IC50): 0.94 µM
Structure (SMILES): Cc1cc(-c2nc(-c3cc(S(=O)(=O)NC4CCOCC4)ccc3C)cnc2N)ccn1 [Example 129.10, 3-(5-amino-6-(2-methylpyridin-4-yl)pyrazin-2-yl)-4-methyl-N-(tetrahydro-2H-pyran-4-yl)benzenesulfonamide]

IC50 (PI 3-kinase alpha): 0.32 µM
IC50 (PI 3-kinase beta): 8.5 µM
IC50 (Vps34): > 9.1 µM
IC50 (PI 4-kinase beta): > 9.1 µM
IC50 (PI 3-kinase gamma): 0.11 µM
IC50 (mTOR): > 9.1 µM
IC50 (PI 3-kinase delta; read-out: Assay F PI3Kδ IC50): 0.29 µM
Structure (SMILES): Cc1cc(-c2nc(-c3cc(S(=O)(=O)NC[C@@](C)(O)C(F)(F)F)ccc3C)cnc2N)ccn1 [Example 129.20, (R)-3-(5-amino-6-(2-methylpyridin-4-yl)pyrazin-2-yl)-4-methyl-N-(3,3,3-trifluoro-2-hydroxy-2-methylpropyl)benzenesulfonamide]

IC50 (PI 3-kinase alpha): 5.4 µM
IC50 (PI 3-kinase beta): > 9.1 µM
IC50 (Vps34): > 9.1 µM
IC50 (PI 4-kinase beta): > 9.1 µM
IC50 (PI 3-kinase gamma): 0.041 µM
IC50 (mTOR): > 9.1 µM
IC50 (PI 3-kinase delta; read-out: Assay F PI3Kδ IC50): 1.2 µM
Structure (SMILES): Cc1cc(-c2nc(-c3cc(S(=O)(=O)NCC4CCN(C)C4)ccc3C)cnc2N)ccn1 (stereo not shown) [Example 129.30, 3-(5-amino-6-(2-methylpyridin-4-yl)pyrazin-2-yl)-4-methyl-N-((1-methylpyrrolidin-3-yl)methyl)benzenesulfonamide]
